{"source": "patent US10570177B2", "about": "“P3 peptidylic inhibitors for treating CAG-repeat RNA toxicity in polyglutamine diseases” (The Chinese University of Hong Kong, priority 2017, dated 2020)", "key": {"[1]": {"experiment": "Plasma pharmacokinetic study in SD rat", "details": "for AUC0-last: Intranasal administration (pre-treated with 0.5% chitosan)", "experimental": "SD rats (180-200 g) were anesthetized with an intraperitoneal injection of ketamine (60 mg/kg) and xylazine (6 mg/kg) and received a minor surgery of cannulation with a polythene tube (0.4 mm i.d., 0.8 mm o.d., Harvard Apparatus, Holliston, Mass., USA) in the left jugular vein. The rats received an overnight recovery with free access to food and water. […] For the pharmacokinetic study, after the drug administration, blood samples were collected from the catheter at appropriate time intervals (2, 5, 10, 15, 20, 30, 45, 60, and 90 min). After each collection, 0.2 mL of saline containing 25 IU heparin was injected to compensate for the blood loss. Plasma was collected after centrifugation at 8000 rcf for 3.5 min and stored at −80° C. until analysis. For brain uptake study, at 20 min, the rat was anesthetized and perfused by 500 mL saline, and the whole brain was collected. The brain was wiped by tissue paper to remove excess water, meninges and blood vessels followed by storage at −80° C. until analysis.\nAliquot of plasma sample (80 μL) was mixed with 160 μL acetonitrile. The mixture was vortexed for 1 min and followed by centrifugation at 13000 rcf for 10 min. The supernatant was collect and subjected to LC/MS/MS analysis.\nAgilent 6430 Triple Quadrupole LC/MS/MS system (Agilent Technologies, CA, USA) was employed for the analysis. For analysis of P3V8, chromatographic separation was achieved on a SunFire C8 Column (250 mm×4.6 mm, 5 μm). The mobile phase of water containing 0.2% formic acid (A) and acetonitrile (B) was used with a gradient elution (0-5 min, 20-70% B). The flow rate was 0.8 mL/min. Multiple reactions monitoring (MRM) with fragmentation transition of 500 to 129 in positive ion mode was employed for quantization of P3V8. […] Mobile phase of water (A) and acetonitrile (B) was used. The gradient elution for plasma samples was 0-4 min, 30-95% B, and for brain samples was 0-9 min, 10-95% B. The flow rate was 0.8 mL/min.\nPlasma concentration verse time profiles were analyzed by WinNonlin (Pharsight Corporation, Mountain View, Calif., USA, Version 2.1) to obtain the pharmacokinetics parameters. Other data were analyzed by one-way ANOVA followed by post hoc Tukey test or unpaired t-test. “*”, “**”, “***” and “****” represent P<0.05, P<0.01, P<0.001 and P<0.0001 respectively, which are considered statistically significant."}, "DsRedCAG0 Drosophila": {"system": "DsRedCAG0 Drosophila", "experiment": "Pseudopupil assay in DsRedCAG0 control Drosophila (toxicity of peptide)", "type": "in vivo", "details": "up to 50 μM", "experimental": "Because of the aim to develop P3V8 into a potent inhibitor that targets RNA toxicity in degenerating cells within the nervous system, it was assessed whether P3V8 had deleterious effects on neuronal cells by determining lactate dehydrogenase release in the culturing medium of rat cortical neurons.\nFlies were raised at 21.5° C. on cornmeal medium supplemented with dry yeast. Fly lines bearing UAS-DsRedCAG0 and UAS-DsRedCAG100 were kind gifts of Professor Nancy Bonini (University of Pennsylvania, USA). The gmr-GAL4 fly line was obtained from Bloomington Drosophila Stock Center. For pseudopupil assay, third instar larvae were fed with various amount of respective peptides dissolved in 2% sucrose solution for 2 hr and then continued to culture in standard fly food at 21.5° C.^38. Pseudopupil assay was performed on 12 day-old adult flies as mentioned previously^39. Images were captured by SPOT Insight CCD camera controlled by the SPOT Advanced software (Diagnostic instruments Inc.). Image processing was performed using the Adobe Photoshop CS software (Adobe). Each experiment was repeated at least 3 times (n=10 fly heads), and consistent results were obtained. […] Viability from egg-to-adult was calculated as the number of adult flies collected divided by the number of eggs examined. […]"}, "[2]": {"experiment": "In vitro stability in rat plasma", "type": "in vitro ADME", "details": "37° C.", "experimental": "(§1) Sprague-Dawley (SD) rats (male, 180-200 g) were supplied by the Laboratory Animal Services Centre at The Chinese University of Hong Kong. All animal studies were conducted under the approval of the Animal Ethics Committee of The Chinese University of Hong Kong, and were performed in accordance with relevant guidelines and regulations. Blank rat brain homogenate was prepared by ultrasonic probe homogenization (Micoson XL-2000, Misonix, Framingdale, N.Y., USA) of brains collected from the control rats. Blank rat plasma was prepared by centrifugation (8000 rcf for 3.5 min) of blood collected from control rats. […] The mixtures were incubated at 37° C. with 100 rpm in a water bath for 1 or 3 hr. The incubation was terminated by addition twice the volume of acetonitrile and centrifugation at 13000 rcf for 10 min. The supernatant was collected for LC/MS/MS analysis."}, "[3]": {"experiment": "In vitro stability in rat brain homogenate", "type": "in vitro ADME", "details": "37° C.", "experimental": "as §1"}, "DsRedCAG100 flies": {"system": "DsRedCAG100 flies", "experiment": "Pseudopupil assay in DsRedCAG100 Drosophila (expanded CAG RNA neurodegeneration)", "type": "in vivo", "details": "for suppression of neurotoxicity / retinal degeneration: DsRedCAG100 flies, in words", "from_the_text": "Here the DsRedCAG0/100Drosophila model was utilized to investigate the suppressive effects of the P3 analogs on RNA toxicity. In this model, the CAG repeat is located in the 3′ untranslated region of the DsRed reporter gene-=. The transcribed expanded CAG RNA is not translated into polyQ protein, and thus the toxicity is solely attributed to the expression of DsRedCAG100 RNA. In brief, the expression of expanded CAG RNA causes severe retinal degeneration in the animal that can be quantified by a pseudopupil assay^7. Inhibitors that can suppress neurotoxicity will result in the recovery of the number of rhabdomeres within the ommatidium. To test the derivatives, third instar larvae were fed different amounts of peptide dissolved in sucrose solution for 2 hr and then allowed to culture in standard fly food until the flies were 12 days old, at which time they were sacrificed for the pseudopupil assay.\nFlies were raised at 21.5° C. on cornmeal medium supplemented with dry yeast. Fly lines bearing UAS-DsRedCAG0 and UAS-DsRedCAG100 were kind gifts of Professor Nancy Bonini (University of Pennsylvania, USA). The gmr-GAL4 fly line was obtained from Bloomington Drosophila Stock Center. For pseudopupil assay, third instar larvae were fed with various amount of respective peptides dissolved in 2% sucrose solution for 2 hr and then continued to culture in standard fly food at 21.5° C.^38. Pseudopupil assay was performed on 12 day-old adult flies as mentioned previously^39. Images were captured by SPOT Insight CCD camera controlled by the SPOT Advanced software (Diagnostic instruments Inc.). Image processing was performed using the Adobe Photoshop CS software (Adobe). Each experiment was repeated at least 3 times (n=10 fly heads), and consistent results were obtained. For viability test of wild-type flies from egg to adult stage, eggs born within 5 hr were collected and cultured in fly food containing 10 or 50 μM of respective peptides at 21.5° C. Viability from egg-to-adult was calculated as the number of adult flies collected divided by the number of eggs examined. Each experiment was repeated for three times (at least 130 eggs were examined in each group). Two batches of independently synthesized peptides were used in the experiments."}, "[4]": {"details": "Intravenous administration, 3 μmol/kg, SD rats"}, "[5]": {"details": "1000 ng/mL, incubation for 1 hr"}, "[6]": {"details": "2000 ng/mL, incubation for 1 hr, 60 min"}, "[7]": {"details": "2000 ng/mL, incubation for 3 hr"}, "[8]": {"details": "2000 ng/mL, incubation for 1 hr"}}, "note": "Several values for one entry are separate records, joined by “and”; a condition that tells them apart may be missing. Equal entries are not always repeated. Marks after values point to notes of the source that are not given here. Residues, ends and D or L forms follow the SMILES beside them. *: point of attachment. Palmitoyl = CCCCCCCCCCCCCCCC(=O)*"}
{"molecule": "CCCCCCCCCCCCCCCC(=O)N[C@@H](CC(=O)O)C(=O)NCC(=O)N[C@@H](CCCCN)C(=O)N[C@@H](CO)C(=O)N[C@@H](CCCCN)C(=O)NCC(=O)N[C@H](C(=O)N[C@@H](C)C(=O)N[C@@H](Cc1ccc(O)cc1)C(=O)N[C@H](C(=O)N[C@@H](CCC(=O)O)C(=O)N[C@@H](Cc1ccccc1)C(=O)N[C@@H](CCCCN)C(N)=O)[C@@H](C)CC)[C@@H](C)CC", "note": "[L1P3V8] (Palmitoyl-DGKSKGIAYIEFK-NH2)", "values": [{"measurement": "AUC0-last", "setting": "[1]; 3 μmol/kg, SD rats", "result": "2277 ± 558*** min * nmol/L"}, {"measurement": "Cmax", "setting": "[1]; [4]", "result": "10.4 ± 1.23", "unit": "µM"}, {"measurement": "T1/2", "setting": "[1]; [4]", "result": 17, "unit": "min"}, {"measurement": "plasma concentration 90 min after dosing", "setting": "[1]; intravenous, 3 μmol/kg", "result": 0.19, "unit": "µM"}, {"measurement": "effect on DsRedCAG0 Drosophila", "setting": "DsRedCAG0 Drosophila", "result": "no cytotoxic effects"}, {"measurement": "Pecentage of remained", "setting": "[2]; 500 ng/mL, incubation for 1 hr", "result": "88.1 ± 4.9", "unit": "%"}, {"measurement": "remaining at 1 h, 1000 ng/mL", "setting": "[2]; male, Sprague-Dawley, rat, 1000 ng/mL, incubation for 1 hr, read-out: Pecentage of remained", "result": "98.7 ± 3.9", "unit": "%"}, {"measurement": "Pecentage of remained", "setting": "[3]; 500 ng/mL, incubation for 1 hr", "result": "<20^# %"}, {"measurement": "Pecentage of remained", "setting": "[3]; 500 ng/mL, incubation for 3 hr", "result": "<20^# %"}, {"measurement": "Pecentage of remained", "setting": "[3]; [5]", "result": "22.8 ± 1.2", "unit": "%"}, {"measurement": "Pecentage of remained", "setting": "[3]; 1000 ng/mL, incubation for 3 hr", "result": "15.8 ± 0.7", "unit": "%"}, {"measurement": "Pecentage of remained", "setting": "[3]; [6]", "result": "45.0 ± 3.5", "unit": "%"}, {"measurement": "Pecentage of remained", "setting": "[3]; [7]", "result": "~21.2", "unit": "%"}, {"measurement": "Pecentage of remained", "setting": "[3]; 2000 ng/mL, incubation for 3 hr, 180 min", "result": "21.2 ± 3.0", "unit": "%"}, {"measurement": "remaining at 3 h, 2000 ng/mL", "setting": "[3]; male, Sprague-Dawley, rat, tissue homogenate, 2000 ng/mL, incubation for 3 hr, read-out: Pecentage of remained", "result": "~21", "unit": "%"}, {"measurement": "suppression of neurotoxicity / retinal degeneration", "setting": "DsRedCAG100 flies", "result": "suppressed retinal degeneration"}]}
{"molecule": "Ac-DGKSKGIAYIEFK-NH2 [P3V8]", "values": [{"measurement": "AUC0-last", "setting": "[1]; 3 μmol/kg, SD rats", "result": "85 ± 32", "unit": "nmol·min/L"}, {"measurement": "Cmax", "setting": "[1]; [4]", "result": "0.452 ± 0.022", "unit": "µM"}, {"measurement": "T1/2", "setting": "[1]; rat, in vivo, iv, 3 umol/kg", "result": "too short to be determined"}, {"measurement": "effect on DsRedCAG0 Drosophila", "setting": "DsRedCAG0 Drosophila", "result": "did not show any observable effect"}, {"measurement": "Pecentage of remained", "setting": "[2]; [8]", "result": "20.7% and 20.7 ± 3.3%"}, {"measurement": "Pecentage of remained", "setting": "[2]; [7]", "result": "almost completely degraded"}, {"measurement": "remaining at 1 h, 2000 ng/mL", "setting": "[2]; male, Sprague-Dawley, rat, rat plasma, 2000 ng/mL, incubation for 1 hr, read-out: Pecentage of remained", "result": 21, "unit": "%"}, {"measurement": "Pecentage of remained", "setting": "[3]; [5]", "result": "4.0 ± 1.6", "unit": "%"}, {"measurement": "Pecentage of remained", "setting": "[3]; [8]", "result": 3.3, "unit": "%"}, {"measurement": "Pecentage of remained", "setting": "[3]; [6]", "result": "3.3 ± 0.6", "unit": "%"}, {"measurement": "Pecentage of remained", "setting": "[3]; [7]", "result": "almost completely degraded"}, {"measurement": "remaining at 1 h, 2000 ng/mL", "setting": "[3]; male, Sprague-Dawley, rat, rat brain homogenate, 2000 ng/mL, incubation for 1 hr, read-out: Pecentage of remained", "result": 3, "unit": "%"}, {"measurement": "pseudopupil score", "setting": "DsRedCAG100 flies; 1 μM treatment, 12 day-old flies", "result": "4.32±0.25"}, {"measurement": "suppression of neurotoxicity / retinal degeneration", "setting": "DsRedCAG100 flies", "result": "significantly suppressed neurotoxicity"}]}
